Measurements reported in publication PMC9897788, “Design, synthesis and cytotoxic evaluation of novel bis-thiazole derivatives as preferential Pim1 kinase inhibitors with in vivo and in silico study” (Journal of Enzyme Inhibition and Medicinal Chemistry, 2023).

Tests used:
Assay in all cases: NCI 60 cell one-dose screening (SRB)
Format in all cases: cell-based
[1] = tested on: MDA-MB-468; details: Homo sapiens; MDA-MB-468, Breast Cancer; single dose 10 µM, 48 h; read-out: Percentage of cellular growth inhibition
Method: (§1) The 60 cancerous cell panel screening was performed following the Developmental Therapeutics Program (DTP) of the National Cancer Institute (NIH-NCI), USA. A single dose of 10 µM was used to perform the screening at 48 h incubation and the results were achieved as cancerous cell growth percentage relative to the no-drug control that was converted to an inhibition percentage by subtracting from 100.The cancerous cell lines were grown in RPMI 1640 medium containing 5% foetal bovine serum and 2 mM L-glutamine at 37 °C, 5% CO2, 95% air and 100% relative humidity for 24 h prior to addition of the tested compounds. After 24 h, two plates of each cell line were fixed in situ with TCA to represent a measurement of the cell population for each cell line at the time of drug addition (Tz). Compounds were dissolved in DMSO at 400-fold the desired final maximum test concentration and stored frozen prior to use. At the time of drug addition, an aliquot of frozen concentrate was thawed and diluted to twice the desired final maximum test concentration with complete medium containing 50 µg/mL gentamicin. Aliquots of 100 µL of the compounds dilution was added to the appropriate micro titre wells already containing 100 µL of medium, resulting in the required final drug concentrations of 10 µM. Following compounds addition, the plates were incubated for an additional 48 h at 37 °C, 5% CO2, 95% air, and 100% relative humidity. For adherent cells, the assay was terminated by the addition of cold TCA. Cells were fixed in situ by the gentle addition of 50 µL of cold 50% (w/v) TCA (final concentration, 10% TCA) and incubated for 60 min at 4 °C. The supernatant was discarded, and the plates were washed five times with tap water and air dried. Sulphorhodamine B (SRB) solution (100 µL) at 0.4% (w/v) in 1% acetic acid is added to each well, and plates are incubated for 10 min at room temperature. After staining, unbound dye was removed by washing five times with 1% acetic acid and the plates were air dried. Bound stain was subsequently solubilised with 10 mM trizma base, and the absorbance was read on an automated plate reader at a wavelength of 515 nm. For suspension cells, the methodology was the same except that the assay was terminated by fixing settled cells at the bottom of the wells by gently adding 50 µL of 80% TCA (final concentration, 16% TCA). Using the seven absorbance measurements [time zero, (Tz), control growth, I, and test growth in the presence of drug at the five concentration levels (Ti)], the percentage growth was calculated as: [(Ti−Tz)/(C−Tz)]×100 for concentrations for which Ti>/=Tz [(Ti−Tz)/Tz]×100 for concentrations for which Ti<Tz.

[2] = tested on: MDA-MB-231/ATCC; details: Homo sapiens, Breast Cancer, single dose 10 µM, 48 h, read-out: Percentage of cellular growth inhibition
Method: as §1

[3] = tested on: SK-MEL-28; details: Homo sapiens; SK-MEL-28, Melanoma; single dose 10 µM, 48 h; read-out: Percentage of cellular growth inhibition
Method: as §1

[4] = tested on: NCI-H322M; details: Homo sapiens, Non-Small Cell Lung Cancer, single dose 10 µM, 48 h, read-out: Percentage of cellular growth inhibition
Method: as §1

[5] = tested on: HL-60(TB); details: Homo sapiens, Leukemia, single dose 10 µM, 48 h, read-out: Percentage of cellular growth inhibition
Method: as §1

[6] = tested on: MOLT-4; details: Homo sapiens; MOLT-4, Leukemia; single dose 10 µM, 48 h; read-out: Percentage of cellular growth inhibition
Method: as §1

[7] = tested on: HCT-15; details: Homo sapiens; HCT-15, Colon Cancer; single dose 10 µM, 48 h; read-out: Percentage of cellular growth inhibition
Method: as §1

[8] = tested on: ACHN; details: Homo sapiens, Renal Cancer, single dose 10 µM, 48 h, read-out: Percentage of cellular growth inhibition
Method: as §1

[9] = tested on: COLO 205; details: Homo sapiens; COLO 205, Colon Cancer; single dose 10 µM, 48 h; read-out: Percentage of cellular growth inhibition
Method: as §1

[10] = tested on: TK-10; details: Homo sapiens; TK-10, Renal Cancer; single dose 10 µM, 48 h; read-out: Percentage of cellular growth inhibition
Method: as §1

[11] = tested on: UACC-257; details: Homo sapiens; UACC-257, Melanoma; single dose 10 µM, 48 h; read-out: Percentage of cellular growth inhibition
Method: as §1

[12] = tested on: RPMI-8226; details: Homo sapiens; RPMI-8226, Leukemia; single dose 10 µM, 48 h; read-out: Percentage of cellular growth inhibition
Method: as §1

[13] = tested on: SK-MEL-5; details: Homo sapiens; SK-MEL-5, Melanoma; single dose 10 µM, 48 h; read-out: Percentage of cellular growth inhibition
Method: as §1

[14] = tested on: SNB-19; details: Homo sapiens; SNB-19, CNS Cancer; single dose 10 µM, 48 h; read-out: Percentage of cellular growth inhibition
Method: as §1

[15] = tested on: SW-620; details: Homo sapiens; SW-620, Colon Cancer; single dose 10 µM, 48 h; read-out: Percentage of cellular growth inhibition
Method: as §1

[16] = tested on: HOP-92; details: Homo sapiens, HOP-92, 48 h, HOP-92, Non-Small Cell Lung Cancer, single dose 10 µM, read-out: Percentage of cellular growth inhibition
Method: as §1

[17] = tested on: CAKI-1; details: Homo sapiens; CAKI-1, Renal Cancer; single dose 10 µM, 48 h; read-out: Percentage of cellular growth inhibition
Method: as §1

[18] = tested on: CCRF-CEM; details: Homo sapiens, Leukemia, single dose 10 µM, 48 h, read-out: Percentage of cellular growth inhibition
Method: as §1

[19] = tested on: UACC-62; details: Homo sapiens; UACC-62, Melanoma; single dose 10 µM, 48 h; read-out: Percentage of cellular growth inhibition
Method: as §1

[20] = tested on: HS 578T; details: Homo sapiens, Breast Cancer, single dose 10 µM, 48 h, read-out: Percentage of cellular growth inhibition
Method: as §1

[21] = tested on: PC-3; details: Homo sapiens; PC-3, Prostate Cancer; single dose 10 µM, 48 h; read-out: Percentage of cellular growth inhibition
Method: as §1

Clc1ccc(-c2cs/c(=N\c3ccccc3)n2-c2cccc(-n3c(-c4ccc(Cl)cc4)cs/c3=N\c3ccccc3)c2)cc1 [8c, N,N’-(3,3’-(1,3-phenylene)bis(4–(4-chlorophenyl)thiazole-3(3H)-yl-2(3H)-ylidene))dianiline]
inhibition at 10 µM [1]: 35.4%
inhibition at 10 µM [2]: -4.5%
inhibition at 10 µM [3]: -1%
inhibition at 10 µM [4]: -1.2%
inhibition at 10 µM [5]: 41.8%
inhibition at 10 µM [6]: 12.3%
inhibition at 10 µM [7]: -1.3%
inhibition at 10 µM [8]: -1.5%
inhibition at 10 µM [9]: 17.2%
inhibition at 10 µM [10]: -14.1%
inhibition at 10 µM [11]: -8.4%
inhibition at 10 µM [12]: 37%
inhibition at 10 µM [13]: 3.1%
inhibition at 10 µM [14]: 3.8%
inhibition at 10 µM [15]: 36.7%
inhibition at 10 µM [16]: 2.4%
inhibition at 10 µM [17]: 9%
inhibition at 10 µM [18]: 32.6%
inhibition at 10 µM [19]: 10.5%
inhibition at 10 µM [20]: 10.4%
inhibition at 10 µM [21]: 28.9%

CCOC(=O)c1sc(Nc2cccc(Nc3nc(C)c(C(=O)OCC)s3)c2)nc1C [3c, Diethyl 2,2’-(1,3-phenylenebis(azanediyl))bis(4-methylthiazole-5-carboxylate)]
inhibition at 10 µM [1]: 52.4%
inhibition at 10 µM [2]: 20.8%
inhibition at 10 µM [3]: 15.7%
inhibition at 10 µM [4]: 3.8%
inhibition at 10 µM [5]: 22.7%
inhibition at 10 µM [6]: 29.2%
inhibition at 10 µM [7]: 20.9%
inhibition at 10 µM [8]: 24.6%
inhibition at 10 µM [9]: 12.8%
inhibition at 10 µM [10]: -0.8%
inhibition at 10 µM [11]: 10.3%
inhibition at 10 µM [12]: 37.7%
inhibition at 10 µM [13]: 55.1%
inhibition at 10 µM [14]: 17.7%
inhibition at 10 µM [15]: 11.4%
inhibition at 10 µM [16]: 47.8%
inhibition at 10 µM [17]: 21.9%
inhibition at 10 µM [18]: 11%
inhibition at 10 µM [19]: 33.1%
inhibition at 10 µM [20]: 14.7%
inhibition at 10 µM [21]: 22.9%

Fc1ccc(-c2csc(Nc3cccc(Nc4nc(-c5ccc(F)cc5)cs4)c3)n2)cc1 [6b, N^1,N^3-bis(4–(4-fluorophenyl)thiazol-2-yl)benzene-1,3-diamine]
inhibition at 10 µM [1]: 61.4%
inhibition at 10 µM [2]: 35.4%
inhibition at 10 µM [3]: 23.6%
inhibition at 10 µM [4]: 39.9%
inhibition at 10 µM [5]: 25.7%
inhibition at 10 µM [6]: 53.6%
inhibition at 10 µM [7]: 47.5%
inhibition at 10 µM [8]: 48.2%
inhibition at 10 µM [9]: 24.3%
inhibition at 10 µM [10]: 5.5%
inhibition at 10 µM [11]: 25.4%
inhibition at 10 µM [12]: 50.5%
inhibition at 10 µM [13]: 38.8%
inhibition at 10 µM [14]: 29.8%
inhibition at 10 µM [15]: 29.7%
inhibition at 10 µM [16]: 60.8%
inhibition at 10 µM [17]: 53.6%
inhibition at 10 µM [18]: 40.9%
inhibition at 10 µM [19]: 42.9%
inhibition at 10 µM [20]: 30.7%
inhibition at 10 µM [21]: 64.8%

Clc1ccc(-c2csc(Nc3cccc(Nc4nc(-c5ccc(Cl)cc5)cs4)c3)n2)cc1 [6c, N^1,N^3-bis(4–(4-chlorophenyl)thiazol-2-yl)benzene-1,3-diamine]
inhibition at 10 µM [1]: 13.4%
inhibition at 10 µM [2]: 24.9%
inhibition at 10 µM [3]: -4.2%
inhibition at 10 µM [4]: 5%
inhibition at 10 µM [5]: 14.6%
inhibition at 10 µM [6]: 25.4%
inhibition at 10 µM [7]: 7.1%
inhibition at 10 µM [8]: 14.3%
inhibition at 10 µM [9]: -7.3%
inhibition at 10 µM [10]: 1.4%
inhibition at 10 µM [11]: -20.4%
inhibition at 10 µM [12]: 14.8%
inhibition at 10 µM [13]: 2.9%
inhibition at 10 µM [14]: 11.5%
inhibition at 10 µM [15]: 0.4%
inhibition at 10 µM [16]: 59.5%
inhibition at 10 µM [17]: 43%
inhibition at 10 µM [18]: 10.4%
inhibition at 10 µM [19]: 17.4%
inhibition at 10 µM [20]: 29.5%
inhibition at 10 µM [21]: 22.2%

S=C(Nc1ccccc1)Nc1cccc(NC(=S)Nc2ccccc2)c1 [compound 7, 1,1′-(1,3-phenylene)bis(3-phenylthiourea)]
inhibition at 10 µM [1]: -8.4%
inhibition at 10 µM [2]: -0.2%
inhibition at 10 µM [3]: -9.8%
inhibition at 10 µM [4]: 2.6%
inhibition at 10 µM [5]: -2.5%
inhibition at 10 µM [6]: -5.8%
inhibition at 10 µM [7]: 0.8%
inhibition at 10 µM [8]: -3.8%
inhibition at 10 µM [9]: -37.6%
inhibition at 10 µM [10]: -17.5%
inhibition at 10 µM [11]: -1.7%
inhibition at 10 µM [12]: -19.2%
inhibition at 10 µM [13]: 1.5%
inhibition at 10 µM [14]: 3.4%
inhibition at 10 µM [15]: -16.8%
inhibition at 10 µM [16]: -15.7%
inhibition at 10 µM [17]: 10.9%
inhibition at 10 µM [18]: 56.8%
inhibition at 10 µM [19]: 5.8%
inhibition at 10 µM [20]: 3.9%
inhibition at 10 µM [21]: -24%

Fc1ccc(-c2cs/c(=N\c3ccccc3)n2-c2cccc(-n3c(-c4ccc(F)cc4)cs/c3=N\c3ccccc3)c2)cc1 [8b, N,N’-(3,3’-(1,3-phenylene)bis(4–(4-fluorophenyl)thiazole-3(3H)-yl-2(3H)-ylidene))dianiline]
inhibition at 10 µM [1]: 51.2%
inhibition at 10 µM [2]: 8.9%
inhibition at 10 µM [3]: 1.7%
inhibition at 10 µM [4]: 15.2%
inhibition at 10 µM [5]: 15.8%
inhibition at 10 µM [6]: 50.1%
inhibition at 10 µM [7]: 21.7%
inhibition at 10 µM [8]: 2.3%
inhibition at 10 µM [9]: -0.4%
inhibition at 10 µM [10]: -16.6%
inhibition at 10 µM [11]: -7%
inhibition at 10 µM [12]: 24.2%
inhibition at 10 µM [13]: 9.3%
inhibition at 10 µM [14]: 5.6%
inhibition at 10 µM [15]: 45.1%
inhibition at 10 µM [16]: 22%
inhibition at 10 µM [17]: 22.2%
inhibition at 10 µM [18]: 35.2%
inhibition at 10 µM [19]: 41%
inhibition at 10 µM [20]: 13.4%
inhibition at 10 µM [21]: 32.1%

Cc1csc(Nc2cccc(Nc3nc(C)cs3)c2)n1 [3a, N^1,N^3-bis(4-methylthiazol-2-yl)benzene-1,3-diamine]
inhibition at 10 µM [1]: 15.9%
inhibition at 10 µM [2]: 21.2%
inhibition at 10 µM [3]: 10.4%
inhibition at 10 µM [4]: 4.9%
inhibition at 10 µM [5]: 18.2%
inhibition at 10 µM [6]: 44%
inhibition at 10 µM [7]: 7.3%
inhibition at 10 µM [8]: 20.7%
inhibition at 10 µM [9]: -3.8%
inhibition at 10 µM [10]: -35%
inhibition at 10 µM [11]: -21.6%
inhibition at 10 µM [12]: 11.8%
inhibition at 10 µM [13]: 6.2%
inhibition at 10 µM [14]: 1%
inhibition at 10 µM [15]: -3.6%
inhibition at 10 µM [16]: 41.2%
inhibition at 10 µM [17]: 23.7%
inhibition at 10 µM [18]: 1.5%
inhibition at 10 µM [19]: 22.3%
inhibition at 10 µM [20]: 7.9%
inhibition at 10 µM [21]: 20.2%
